Data: patent US20250215030A1, “STAT MODULATORS AND USES THEREOF” (Recludix Pharma, Inc., priority 2022, published 2025)

Tests used:
[1] = molecular target: T1, Recombinant STAT3 protein (STAT3(G127-I722)) (Homo sapiens, UniProt P40763); test: STAT3 Fluorescence Polarization (FP) Assay; type: binding; details: STAT3(G127-I722) 25 nM, probe 5-FAM-GpYLPQTV-NH2 2 nM, 45-minute incubation
T1 construct: STAT3(G127-I722)
Summary of the method: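 Serially diluted compounds (1% DMSO) were mixed with 2 nM fluorescent phosphotyrosine peptide and 25 nM STAT3 construct G127-I722, pH 7.4, incubated 45 min at room temperature. IC50 values from fitted polarization curves are reported as categories A (≤100 nM), B, C, D (>10 μM).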

[2] = molecular target: T2, Recombinant STAT6 protein (STAT6(W123-T658)) (Homo sapiens, UniProt P42226); test: STAT6 Fluorescence Polarization (FP) Assay; type: binding; details: STAT6(W123-T658) 250 nM, probe 5-FAM-ApYKPFQDLI-NH2 2 nM, 45-minute incubation
T2 construct: STAT6(W123-T658)
T2 sequence (P42226 123-658): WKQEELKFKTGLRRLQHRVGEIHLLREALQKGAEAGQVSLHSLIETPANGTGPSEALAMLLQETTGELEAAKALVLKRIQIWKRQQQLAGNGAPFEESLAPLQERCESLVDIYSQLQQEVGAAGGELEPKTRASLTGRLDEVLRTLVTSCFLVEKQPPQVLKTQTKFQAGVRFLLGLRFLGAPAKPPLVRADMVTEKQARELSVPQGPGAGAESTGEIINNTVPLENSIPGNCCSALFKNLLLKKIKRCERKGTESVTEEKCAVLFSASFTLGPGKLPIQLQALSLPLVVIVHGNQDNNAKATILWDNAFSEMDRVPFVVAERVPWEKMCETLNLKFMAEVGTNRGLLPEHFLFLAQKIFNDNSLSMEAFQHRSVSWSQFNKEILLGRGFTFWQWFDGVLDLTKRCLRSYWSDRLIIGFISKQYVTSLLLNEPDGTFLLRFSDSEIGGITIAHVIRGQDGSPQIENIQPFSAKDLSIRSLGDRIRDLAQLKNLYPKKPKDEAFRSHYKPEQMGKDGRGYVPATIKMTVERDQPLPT
Summary of the method: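 Competitive displacement of a fluorescent phosphotyrosine peptide (2 nM) from recombinant STAT6 W123-T658 (250 nM), 45 min at room temperature in 10 mM HEPES pH 7.4, 50 mM NaCl, 2 mM DTT. mP fitted against log compound for IC50, grouped A (≤300 nM) to D (>30 μM).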

T1 sequence (P40763 127-722, species assumed): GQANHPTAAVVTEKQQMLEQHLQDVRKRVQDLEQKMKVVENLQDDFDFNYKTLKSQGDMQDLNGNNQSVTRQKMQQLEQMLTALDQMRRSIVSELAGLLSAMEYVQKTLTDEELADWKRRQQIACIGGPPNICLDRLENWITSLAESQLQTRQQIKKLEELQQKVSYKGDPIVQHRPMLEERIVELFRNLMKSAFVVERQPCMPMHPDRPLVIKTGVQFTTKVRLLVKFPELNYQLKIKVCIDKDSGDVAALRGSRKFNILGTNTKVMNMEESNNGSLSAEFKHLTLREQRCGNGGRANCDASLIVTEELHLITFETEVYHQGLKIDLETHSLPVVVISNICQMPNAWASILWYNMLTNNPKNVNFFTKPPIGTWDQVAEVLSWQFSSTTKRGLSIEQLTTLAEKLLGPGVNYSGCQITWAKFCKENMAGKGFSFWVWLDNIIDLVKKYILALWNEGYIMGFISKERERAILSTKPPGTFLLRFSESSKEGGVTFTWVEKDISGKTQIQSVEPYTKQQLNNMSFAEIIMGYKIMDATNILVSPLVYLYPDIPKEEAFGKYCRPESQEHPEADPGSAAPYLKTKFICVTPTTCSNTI

SMILES	IC50 [1] [nM]	IC50 [2] [µM]
O=C(N[C@H]1C[C@H]2C[C@H]2C[C@H]2CC[C@@H](C(=O)N3CC(c4cnccc4F)C3)N2C1=O)c1cc2cc(CP(=O)(O)O)ccc2s1 [Example 250, ((2-(((3S,6S,7aR,8aS,9aR)-3-(3-(4-fluoropyridin-3-yl)azetidine-1-carbonyl)-5-oxodecahydro-1H-cyclopropa[d]pyrrolo[1,2-a]azocin-6-yl)carbamoyl)benzo[b]thiophen-5-yl)methyl)phosphonic acid]	< 100	3 to 30
CCc1ccncc1C1CN(C(=O)[C@@H]2CC[C@@H]3C[C@H]4C[C@H]4C[C@H](NC(=O)c4cc5cc(CP(=O)(O)O)ccc5s4)C(=O)N32)C1 [Example 252, ((2-(((3S,6S,7aS,8aR,9aR)-3-(3-(4-ethylpyridin-3-yl)azetidine-1-carbonyl)-5-oxodecahydro-1H-cyclopropa[d]pyrrolo[1,2-a]azocin-6-yl)carbamoyl)benzo[b]thiophen-5-yl)methyl)phosphonic acid]	< 100	> 30
O=C(N[C@H]1C[C@H]2C[C@H]2C[C@H]2CC[C@@H](C(=O)N[C@H]3CN(c4cccnc4)C[C@@H]3F)N2C1=O)c1cc2cc(CP(=O)(O)O)ccc2s1 [Example 253, ((2-(((3S,6S,7aR,8aS,9aR)-3-(((3S,4S)-4-fluoro-1-(pyridin-3-yl)pyrrolidin-3-yl)carbamoyl)-5-oxodecahydro-1H-cyclopropa[d]pyrrolo[1,2-a]azocin-6-yl)carbamoyl)benzo[b]thiophen-5-yl)methyl)phosphonic acid]	< 100	3 to 30
CC(=O)N1C[C@H](NC(=O)[C@@H]2CC[C@@H]3C[C@@H]4C[C@@H]4C[C@H](NC(=O)c4cc5cc(C(F)P(=O)(O)O)ccc5s4)C(=O)N32)[C@@H](F)C1 (stereo partly drawn) [Example 254, ((2-(((3S,6S,7aR,8aS,9aR)-3-(((3S,4S)-1-acetyl-4-fluoropyrrolidin-3-yl)carbamoyl)-5-oxodecahydro-1H-cyclopropa[d]pyrrolo[1,2-a]azocin-6-yl)carbamoyl)benzo[b]thiophen-5-yl)fluoromethyl)phosphonic acid]	100 to 1000	0.3 to 3
O=C(N[C@H]1C[C@@H]2C[C@@H]2C[C@H]2CC[C@@H](C(=O)N[C@H]3CN(c4cccnc4)C[C@@H]3F)N2C1=O)c1cc2cc(CP(=O)(O)O)ccc2s1 [Example 256, ((2-(((3S,6S,7aS,8aR,9aR)-3-(((3S,4S)-4-fluoro-1-(pyridin-3-yl)pyrrolidin-3-yl)carbamoyl)-5-oxodecahydro-1H-cyclopropa[d]pyrrolo[1,2-a]azocin-6-yl)carbamoyl)benzo[b]thiophen-5-yl)methyl)phosphonic acid]	100 to 1000	3 to 30
O=C(N[C@H]1C[C@@H]2C[C@@H]2C[C@H]2CC[C@@H](C(=O)N[C@H]3CN(c4ncccn4)C[C@@H]3F)N2C1=O)c1cc2cc(CP(=O)(O)O)ccc2s1 [Example 257, ((2-(((3S,6S,7aS,8aR,9aR)-3-(((3S,4S)-4-fluoro-1-(pyrimidin-2-yl)pyrrolidin-3-yl)carbamoyl)-5-oxodecahydro-1H-cyclopropa[d]pyrrolo[1,2-a]azocin-6-yl)carbamoyl)benzo[b]thiophen-5-yl)methyl)phosphonic acid]	> 10000	3 to 30
CC(=O)N1CC2C1CCN2C(=O)[C@@H]1CC[C@@H]2C[C@H]3C[C@H]3C[C@H](NC(=O)c3cc4cc(C(F)(F)P(=O)(O)O)ccc4s3)C(=O)N21 (stereo partly drawn) [Example 258, ((2-(((3S,6S,7aS,8aR,9aR)-3-(6-acetyl-2,6-diazabicyclo[3.2.0]heptane-2-carbonyl)-5-oxodecahydro-1H-cyclopropa[d]pyrrolo[1,2-a]azocin-6-yl)carbamoyl)benzo[b]thiophen-5-yl)difluoromethyl)phosphonic acid]	< 100	0.3 to 3

The next lines start with the values.

IC50 [1] [nM]	IC50 [2] [µM]	SMILES
< 100	0.3 to 3	O=C(N[C@H]1C[C@@H]2C[C@@H]2C[C@H]2CC[C@@H](C(=O)N3CCC4C3CN4c3cccnc3)N2C1=O)c1cc2cc(C(F)(F)P(=O)(O)O)ccc2s1 (stereo partly drawn) [Example 259, (difluoro(2-(((3S,6S,7aS,8aR,9aR)-5-oxo-3-(6-(pyridin-3-yl)-2,6-diazabicyclo[3.2.0]heptane-2-carbonyl)decahydro-1H-cyclopropa[d]pyrrolo[1,2-a]azocin-6-yl)carbamoyl)benzo[b]thiophen-5-yl)methyl)phosphonic acid]
1000 to 10000	> 30	CC(=O)N1CC2C1CCN2C(=O)[C@@H]1CC[C@@H]2C[C@H]3C[C@H]3C[C@H](NC(=O)c3cc4cc(CP(=O)(O)O)ccc4s3)C(=O)N21 (stereo partly drawn) [Example 260, ((2-(((3S,6S,7aS,8aR,9aR)-3-(6-acetyl-2,6-diazabicyclo[3.2.0]heptane-2-carbonyl)-5-oxodecahydro-1H-cyclopropa[d]pyrrolo[1,2-a]azocin-6-yl)carbamoyl)benzo[b]thiophen-5-yl)methyl)phosphonic acid]
100 to 1000	3 to 30	O=C(N[C@H]1C[C@@H]2C[C@@H]2C[C@H]2CC[C@@H](C(=O)N3CCC4C3CN4c3cccnc3)N2C1=O)c1cc2cc(CP(=O)(O)O)ccc2s1 (stereo partly drawn) [Example 261, ((2-(((3S,6S,7aS,8aR,9aR)-5-oxo-3-(6-(pyridin-3-yl)-2,6-diazabicyclo[3.2.0]heptane-2-carbonyl)decahydro-1H-cyclopropa[d]pyrrolo[1,2-a]azocin-6-yl)carbamoyl)benzo[b]thiophen-5-yl)methyl)phosphonic acid]
< 100	0.3 to 3	O=C(N[C@H]1C[C@@H]2C[C@@H]2C[C@H]2CC[C@@H](C(=O)N3CC(c4cnccc4F)C3)N2C1=O)c1cc2cc(C(F)P(=O)(O)O)ccc2s1 (stereo partly drawn) [Example 262, (fluoro(2-(((3S,6S,7aS,8aR,9aR)-3-(3-(4-fluoropyridin-3-yl)azetidine-1-carbonyl)-5-oxodecahydro-1H-cyclopropa[d]pyrrolo[1,2-a]azocin-6-yl)carbamoyl)benzo[b]thiophen-5-yl)methyl)phosphonic acid]
< 100	> 30	COc1ccncc1C1CN(C(=O)[C@@H]2CC[C@@H]3C[C@H]4C[C@H]4C[C@H](NC(=O)c4cc5cc(CP(=O)(O)O)ccc5s4)C(=O)N32)C1 [Example 265, ((2-(((3S,6S,7aS,8aR,9aR)-3-(3-(4-methoxypyridin-3-yl)azetidine-1-carbonyl)-5-oxodecahydro-1H-cyclopropa[d]pyrrolo[1,2-a]azocin-6-yl)carbamoyl)benzo[b]thiophen-5-yl)methyl)phosphonic acid]
< 100	3 to 30	CCc1ccncc1C1CN(C(=O)[C@@H]2CC[C@@H]3C[C@H]4C[C@H]4C[C@H](NC(=O)c4cc5cc(C(F)P(=O)(O)O)ccc5s4)C(=O)N32)C1 (stereo partly drawn) [Example 266, ((2-(((3S,6S,7aS,8aR,9aR)-3-(3-(4-ethylpyridin-3-yl)azetidine-1-carbonyl)-5-oxodecahydro-1H-cyclopropa[d]pyrrolo[1,2-a]azocin-6-yl)carbamoyl)benzo[b]thiophen-5-yl)fluoromethyl)phosphonic acid]
< 100	0.3 to 3	O=C(N[C@H]1C[C@H]2C[C@H]2C[C@H]2CC[C@@H](C(=O)N[C@H]3CN(c4cccnc4)C[C@@H]3F)N2C1=O)c1cc2cc(C(F)P(=O)(O)O)ccc2s1 (stereo partly drawn) [Example 267, (fluoro(2-(((3S,6S,7aR,8aS,9aR)-3-(((3S,4S)-4-fluoro-1-(pyridin-3-yl)pyrrolidin-3-yl)carbamoyl)-5-oxodecahydro-1H-cyclopropa[d]pyrrolo[1,2-a]azocin-6-yl)carbamoyl)benzo[b]thiophen-5-yl)methyl)phosphonic acid]
< 100	0.3 to 3	CC(=O)N1CCC2C1CN2C(=O)[C@@H]1CC[C@@H]2C[C@H]3C[C@H]3C[C@H](NC(=O)c3cc4cc(C(F)(F)P(=O)(O)O)ccc4s3)C(=O)N21 (stereo partly drawn) [Example 270, ((2-(((3S,6S,7aS,8aR,9aR)-3-(2-acetyl-2,6-diazabicyclo[3.2.0]heptane-6-carbonyl)-5-oxodecahydro-1H-cyclopropa[d]pyrrolo[1,2-a]azocin-6-yl)carbamoyl)benzo[b]thiophen-5-yl)difluoromethyl)phosphonic acid]
1000 to 10000	> 30	CC(=O)N1CCC2C1CN2C(=O)[C@@H]1CC[C@@H]2C[C@H]3C[C@H]3C[C@H](NC(=O)c3cc4cc(CP(=O)(O)O)ccc4s3)C(=O)N21 (stereo partly drawn) [Example 271, ((2-(((3S,6S,7aS,8aR,9aR)-3-(2-acetyl-2,6-diazabicyclo[3.2.0]heptane-6-carbonyl)-5-oxodecahydro-1H-cyclopropa[d]pyrrolo[1,2-a]azocin-6-yl)carbamoyl)benzo[b]thiophen-5-yl)methyl)phosphonic acid]
